Measured values taken from patent publication US8273773B2 (priority 2008, dated 2012).
pIC50: −log10 of the molar value. Read-outs that look alike come from different tables or passages of the source.

What was measured:
[1] = test system: HCV replicon cells (2209-23), genotype 1b replicon; test: HCV Replicon Assay (Renilla luciferase reporter); type: cell-based, HCV genotype 1b replicon in human hepatoma Huh7 cells; settings: 2209-23 cells, three days incubation
[2] = target: T1, HCV polymerase (NS5B570n-Con1) (Hepatitis C virus genotype 1b, UniProt Q9WMX2); test: biochemical; parameters: species or system HCV Con1 strain;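 also: recombinant His-tagged enzyme from E. coli, radiolabeled nucleotide incorporation into acid-insoluble RNA read by scintillation after filtration, no-enzyme background subtracted, activity relative to positive control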
T1 construct: contains a 21 amino acid deletion at the C-terminus relative to the full-length HCV polymerase; 6-histidine (N); made in house; host or cells: E. coli strain BL21(DE) pLysS (pET17b)

[3] = test system: HCV; settings: monotherapy; cited from earlier work
[4] = IC50 HCV NS5B RNA Polymerase Assay (values with asterisk), values with asterisk: cIRES RNA template, 3 nM NS5B570n-Con1
[5] = IC50 HCV NS5B RNA Polymerase Assay, values without asterisk, 20 nM NS5B570n-Con1 enzyme, 20 nM cIRES RNA template

Structure (SMILES) | pIC50 ([1]; Hepatitis C virus, 72 h) | melting point [°C] | other results
COc1c(/C=C/c2ccc(NS(C)(=O)=O)cc2)cc(-c2ccc[nH]c2=O)cc1C1(Cl)CC1 [I-267] | 7.99 | – | –
Cc1cc(C(=O)O)ccc1[N+](=O)[O-] [I-129] | – | – | pIC50 [1]: 7.00; pIC50 ([2]; values without asterisk, 20 nM NS5B570n-Con1 enzyme, 20 nM cIRES RNA template, read-out: IC50 HCV NS5B RNA Polymerase Assay): 8.15
COc1c(/C=C/c2ccccc2C(C)=O)cc(-c2ccc[nH]c2=O)cc1C(C)(C)C [I-243, 3-{3-[(E)-2-(2-Acetyl-phenyl)-vinyl]-5-tert-butyl-4-methoxy-phenyl}-1H-pyridin-2-one] | 6.68 | – | –
COc1c(/C=C/c2ccc(NS(C)(=O)=O)cc2CO)cc(-c2cc(F)c[nH]c2=O)cc1C(C)(C)C [I-187, N-(4-{(E)-2-[3-tert-Butyl-5-(5-fluoro-2-oxo-1,2-dihydro-pyridin-3-yl)-2-methoxy-phenyl]-vinyl}-3-hydroxymethyl-phenyl)-methanesulfonamide] | 7.36 | – | pIC50 [2, 4]: 8.52
COc1c(/C=C/c2ccc(NS(C)(=O)=O)cc2)cc(-c2ccc[nH]c2=O)cc1C1(C(F)F)CC1 [I-270] | 7.46 | – | pIC50 [2, 4]: 9.00
CC1(C)COc2c(-c3cc(F)c[nH]c3=O)cc(/C=C/c3ccc(NS(C)(=O)=O)cc3)cc21 [II-3] | 7.26 | 264 to 266 | –
COc1c(/C=C/c2ccc(NS(C)(=O)=O)cc2C(=O)O)cc(-c2ccc[nH]c2=O)cc1C(C)(C)C [I-203, 2-{(E)-2-[3-tert-Butyl-2-methoxy-5-(2-oxo-1,2-dihydro-pyridin-3-yl)-phenyl]-vinyl}-5-methanesulfonylamino-benzoic acid] | 8.00 | 260 to 262 | –
COc1c(/C=C/c2ccc(NS(C)(=O)=O)cc2)cc(-c2ccc[nH]c2=O)cc1C1(C#N)CC1 [I-268, N-(4-{(E)-2-[3-(1-Cyano-cyclopropyl)-2-methoxy-5-(2-oxo-1,2-dihydro-pyridin-3-yl)-phenyl]-vinyl}-phenyl)-methanesulfonamide] | 7.66 | – | –
COc1c(/C=C/c2ccc(NS(C)(=O)=O)cc2)cc(-c2cc(F)c[nH]c2=O)cc1C(C)(C)C [I-142, N-(4-{(E)-2-[3-tert-Butyl-5-(5-fluoro-2-oxo-1,2-dihydro-pyridin-3-yl)-2-methoxy-phenyl]-vinyl}-phenyl)-methanesulfonamide] | 7.11 | – | –
COc1c(/C=C/c2ccc(NS(C)(=O)=O)cc2)cc(-c2ccc[nH]c2=O)cc1C(C)(C)C [I-126, N-(4-{(E)-2-[3-tert-Butyl-2-methoxy-5-(2-oxo-1,2-dihydro-pyridin-3-yl)-phenyl]-vinyl}-phenyl)-methanesulfonamide] | 8.22 | – | –
NC(=O)c1ncn([C@@H]2O[C@H](CO)[C@@H](O)[C@H]2O)n1 [ribavirin, 1-((2R,3R,4S,5R)-3,4-Dihydroxy-5-hydroxymethyl-tetrahydro-furan-2-yl)-1H-[1,2,4]triazole-3-carboxylic acid amide] | – | – | patients in whom serum amino transferase levels are reduced to normal [3]: 40%
CCc1cc(C(C)(C)C)cc(-c2ccc[nH]c2=O)c1O [I-14] | – | 224.2 to 226.2 | pIC50 [2, 5]: 6.48
COc1c(CCc2ccc(NS(C)(=O)=O)cc2C)cc(-c2ccc[nH]c2=O)cc1C(C)(C)C [I-109, N-(4-{2-[3-tert-Butyl-2-methoxy-5-(2-oxo-1,2-dihydro-pyridin-3-yl)-phenyl]-ethyl}-3-methyl-phenyl)-methanesulfonamide] | – | 240 to 242 | pIC50 [2, 5]: 8.15
COc1ccc(-c2ccc[nH]c2=O)cc1C(C)(C)OC [I-62] | – | 154 to 155 | pIC50 [2, 5]: 5.38
